Measured values taken from ChEMBL document CHEMBL3286290, “In vitro screening of pentamidine analogs against bacterial and fungal strains” (Bioorg Med Chem Lett, 2014).
≈ marks a conversion by molar mass, not a printed value. Structures can show the parent of a compound that is named as a salt.

Assays:
Assay type in all cases: functional
[1] = test system: Micrococcus luteus; test: Antibacterial activity against Micrococcus luteus ATCC 9341 assessed as growth inhibition by M7-A6 method
[2] = test system: Bacillus subtilis; test: Antibacterial activity against Bacillus subtilis ATCC 6633 assessed as growth inhibition by M7-A6 method
[3] = test system: Bacillus cereus; test: Antibacterial activity against Bacillus cereus ATCC 11778 assessed as growth inhibition by M7-A6 method
[4] = test system: Aspergillus brasiliensis; test: Antifungal activity against Aspergillus brasiliensis ATCC 16404 assessed as growth inhibition by M7-A6 method
[5] = test system: Candida parapsilosis; test: Antifungal activity against Candida parapsilosis ATCC 22019 assessed as growth inhibition by M7-A6 method; settings: Lodderomyces parapsilosis
[6] = test system: Candida albicans; test: Antifungal activity against Candida albicans ATCC 2091 assessed as growth inhibition by M7-A6 method
[7] = test system: Candida albicans; test: Antifungal activity against Candida albicans ATCC 10231 assessed as growth inhibition by M7-A6 method
[8] = test system: Saccharomyces cerevisiae; test: Antifungal activity against Saccharomyces cerevisiae ATCC 9763 assessed as growth inhibition by M7-A6 method
[9] = test system: Escherichia coli; test: Antibacterial activity against Escherichia coli ATCC 8739 assessed as growth inhibition by M7-A6 method
[10] = test system: Staphylococcus aureus; test: Antibacterial activity against Staphylococcus aureus ATCC 6538 assessed as growth inhibition by M7-A6 method
[11] = Antifungal activity against Zygosaccharomyces rouxii ATCC 28253 assessed as growth inhibition by M7-A6 method
[12] = test system: Staphylococcus aureus; test: Antibacterial activity against Staphylococcus aureus ATCC 6538P assessed as growth inhibition by M7-A6 method
[13] = test system: Pseudomonas aeruginosa; test: Antibacterial activity against Pseudomonas aeruginosa ATCC 9027 assessed as growth inhibition by M7-A6 method
[14] = test system: Escherichia coli; test: Antibacterial activity against Escherichia coli ATCC 10536 assessed as growth inhibition by M7-A6 method
[15] = test system: Micrococcus luteus; test: Antibacterial activity against Micrococcus luteus ATCC 10240 assessed as growth inhibition by M7-A6 method
[16] = test system: Pseudomonas aeruginosa; test: Antibacterial activity against Pseudomonas aeruginosa ATCC 15442 assessed as growth inhibition by M7-A6 method
[17] = test system: Staphylococcus aureus; test: Antibacterial activity against penicillin, erythromycin, clindamycin, ciprofloxacin, methicillin-resistant Staphylococcus aureus 19K/11 assessed as growth inhibition by M7-A6 method
[18] = test system: Staphylococcus aureus; test: Antibacterial activity against penicillin, erythromycin, amikacin, clindamycin, ciprofloxacin, methicillin-resistant Staphylococcus aureus 572/12 assessed as growth inhibition by M7-A6 method
[19] = test system: Staphylococcus aureus; test: Antibacterial activity against penicillin, erythromycin, amikacin, clindamycin, ciprofloxacin, methicillin-resistant Staphylococcus aureus 573/12 assessed as growth inhibition by M7-A6 method
[20] = test system: Staphylococcus aureus; test: Antibacterial activity against penicillin, erythromycin, amikacin, clindamycin, ciprofloxacin, methicillin-resistant Staphylococcus aureus 495/11 assessed as growth inhibition by M7-A6 method
[21] = test system: Staphylococcus aureus; test: Antibacterial activity against erythromycin, amikacin, clindamycin, ciprofloxacin, methicillin-resistant Staphylococcus aureus 15K/11 assessed as growth inhibition by M7-A6 method

Row | Structure (SMILES) | MIC [1] [µM] | MIC [2] [µM] | MIC [3] [µM] | MIC [4] [mM] | MIC [5] [µM] | MIC [6] [µM] | MIC [7] [µM] | MIC [8] [µM] | MIC [9] [µM] | MIC [10] [µM] | MIC [11] [µM] | MIC [12] [µM] | MIC [13] [mM] | MIC [14] [µM] | MIC [15] [µM] | MIC [16] [mM] | other results
1 | COc1cc(C(=N)N)cc(OC)c1OCCN(CCOc1c(OC)cc(C(=N)N)cc1OC)S(=O)(=O)c1ccccc1 | 2.8 (≈ 1.68 µg/mL) | 70 (≈ 42.1 µg/mL) | 88 (≈ 52.9 µg/mL) | 7.04 (≈ 4240 µg/mL) | 7040 (≈ 4240 µg/mL) | 7040 (≈ 4240 µg/mL) | 7040 (≈ 4240 µg/mL) | 7040 (≈ 4240 µg/mL) | 7040 (≈ 4240 µg/mL) | 70 (≈ 42.1 µg/mL) | 7040 (≈ 4240 µg/mL) | 70 (≈ 42.1 µg/mL) | 7.04 (≈ 4240 µg/mL) | 7040 (≈ 4240 µg/mL) | 7 (≈ 4.21 µg/mL) | 7.04 (≈ 4240 µg/mL) | –
2 | COc1cc(C(=N)N)ccc1OCCN(CCOc1ccc(C(=N)N)cc1OC)S(=O)(=O)c1ccc(NC(C)=O)cc1 | 72 (≈ 43.1 µg/mL) | 720 (≈ 431 µg/mL) | 72 (≈ 43.1 µg/mL) | 7.16 (≈ 4290 µg/mL) | 360 (≈ 216 µg/mL) | 1430 (≈ 856 µg/mL) | 180 (≈ 108 µg/mL) | 1430 (≈ 856 µg/mL) | 3580 (≈ 2140 µg/mL) | 140 (≈ 83.8 µg/mL) | 1430 (≈ 856 µg/mL) | 360 (≈ 216 µg/mL) | 7.16 (≈ 4290 µg/mL) | 3580 (≈ 2140 µg/mL) | 89 (≈ 53.3 µg/mL) | 7.16 (≈ 4290 µg/mL) | –
3 | N=C(N)c1ccc(OCCSCCOc2ccc(C(=N)N)cc2)cc1 | 4.6 (≈ 1.65 µg/mL) | 140 (≈ 50.2 µg/mL) | 69.5 (≈ 24.9 µg/mL) | 0.07 (≈ 25.1 µg/mL) | 23 (≈ 8.24 µg/mL) | 140 (≈ 50.2 µg/mL) | 140 (≈ 50.2 µg/mL) | 290 (≈ 104 µg/mL) | 140 (≈ 50.2 µg/mL) | 69.5 (≈ 24.9 µg/mL) | 70 (≈ 25.1 µg/mL) | 140 (≈ 50.2 µg/mL) | 1.74 (≈ 624 µg/mL) | 580 (≈ 208 µg/mL) | 23 (≈ 8.24 µg/mL) | 2.32 (≈ 832 µg/mL) | MIC [17]: 140 µM (≈ 50.2 µg/mL); MIC [18]: 290 µM (≈ 104 µg/mL); MIC [19]: 290 µM (≈ 104 µg/mL); MIC [20]: 2320 µM (≈ 832 µg/mL); MIC [21]: 1160 µM (≈ 416 µg/mL)
4 | COc1cc(C(=N)N)ccc1OCCN(CCOc1ccc(C(=N)N)cc1OC)S(=O)(=O)c1ccccc1 | 15 (≈ 8.12 µg/mL) | 42 (≈ 22.7 µg/mL) | 42 (≈ 22.7 µg/mL) | 7.38 (≈ 4000 µg/mL) | 370 (≈ 200 µg/mL) | 370 (≈ 200 µg/mL) | 92 (≈ 49.8 µg/mL) | 180 (≈ 97.5 µg/mL) | 370 (≈ 200 µg/mL) | 42 (≈ 22.7 µg/mL) | 180 (≈ 97.5 µg/mL) | 42 (≈ 22.7 µg/mL) | 7.38 (≈ 4000 µg/mL) | 740 (≈ 401 µg/mL) | 42 (≈ 22.7 µg/mL) | 7.38 (≈ 4000 µg/mL) | –
5 | N=C(N)c1ccc(OCCCCCOc2ccc(C(=N)N)cc2)cc1 [PENTAMIDINE HYDROCHLORIDE] | 1.1 | 67 | 1.1 | 0.022 | 4.4 | 110 | 110 | 280 | 280 | 22 | 67 | 67 | 1.11 | 280 | 4.4 | 1.67 | MIC [17]: 140 µM; MIC [18]: 560 µM; MIC [19]: 140 µM; MIC [20]: 1110 µM; MIC [21]: 1110 µM
6 | COc1cc(C(=N)N)cc(OC)c1OCCCCCOc1c(OC)cc(C(=N)N)cc1OC | 3.5 (≈ 1.61 µg/mL) | 89 (≈ 41 µg/mL) | 110 (≈ 50.7 µg/mL) | 8.92 (≈ 4110 µg/mL) | 890 (≈ 410 µg/mL) | 1780 (≈ 820 µg/mL) | 890 (≈ 410 µg/mL) | 4460 (≈ 2050 µg/mL) | 220 (≈ 101 µg/mL) | 54 (≈ 24.9 µg/mL) | 110 (≈ 50.7 µg/mL) | 54 (≈ 24.9 µg/mL) | 1.78 (≈ 820 µg/mL) | 220 (≈ 101 µg/mL) | 18 (≈ 8.29 µg/mL) | 4.46 (≈ 2050 µg/mL) | –
7 | N=C(N)c1ccc(NCCOCCNc2ccc(C(=N)N)cc2)cc1 | 24 (≈ 8.17 µg/mL) | 590 (≈ 201 µg/mL) | 590 (≈ 201 µg/mL) | 5.92 (≈ 2020 µg/mL) | 71 (≈ 24.2 µg/mL) | 5920 (≈ 2020 µg/mL) | 5920 (≈ 2020 µg/mL) | 11800 (≈ 4030 µg/mL) | 2370 (≈ 807 µg/mL) | 590 (≈ 201 µg/mL) | 5920 (≈ 2020 µg/mL) | 590 (≈ 201 µg/mL) | > 23.7 | 11800 (≈ 4030 µg/mL) | 71 (≈ 24.2 µg/mL) | > 23.7 | –
8 | CN(CCCCCN(C)c1ccc(C(=N)N)cc1)c1ccc(C(=N)N)cc1 | 3.9 (≈ 1.43 µg/mL) | 98 (≈ 35.9 µg/mL) | 59 (≈ 21.6 µg/mL) | 9.78 (≈ 3580 µg/mL) | 20 (≈ 7.33 µg/mL) | 120 (≈ 44 µg/mL) | 120 (≈ 44 µg/mL) | 240 (≈ 88 µg/mL) | 9780 (≈ 3580 µg/mL) | 59 (≈ 21.6 µg/mL) | 120 (≈ 44 µg/mL) | 120 (≈ 44 µg/mL) | > 19.6 | 9780 (≈ 3580 µg/mL) | 19.5 (≈ 7.15 µg/mL) | > 19.6 | –
9 | N=C(N)c1ccc(OCCN(CCOc2ccc(C(=N)N)cc2)S(=O)(=O)c2ccccc2)cc1 | 100 (≈ 48.2 µg/mL) | 82 (≈ 39.5 µg/mL) | 16 (≈ 7.71 µg/mL) | 8.22 (≈ 3960 µg/mL) | 100 (≈ 48.2 µg/mL) | 210 (≈ 101 µg/mL) | 210 (≈ 101 µg/mL) | 210 (≈ 101 µg/mL) | 210 (≈ 101 µg/mL) | 49 (≈ 23.6 µg/mL) | 10 (≈ 4.82 µg/mL) | 49 (≈ 23.6 µg/mL) | 1.64 (≈ 790 µg/mL) | 210 (≈ 101 µg/mL) | 16 (≈ 7.71 µg/mL) | 1.64 (≈ 790 µg/mL) | –
10 | COc1cc(C(=N)N)cc(OC)c1OCCN(CCOc1c(OC)cc(C(=N)N)cc1OC)S(=O)(=O)c1ccc(N)cc1 | 38 (≈ 23.4 µg/mL) | 320 (≈ 197 µg/mL) | 320 (≈ 197 µg/mL) | > 12.8 | > 12800 | > 12800 | > 12800 | > 12800 | 6410 (≈ 3950 µg/mL) | 320 (≈ 197 µg/mL) | – | 320 (≈ 197 µg/mL) | 6.41 (≈ 3950 µg/mL) | 6410 (≈ 3950 µg/mL) | 64 (≈ 39.5 µg/mL) | 6.41 (≈ 3950 µg/mL) | –
